The record followed here is patent US8633208B2, “6-1H-imidazo-quinazoline and quinolines derivatives, new MAO inhibitors and imidazoline receptor ligands” (Rottapharm S.p.A, priority 2008, dated 2014).

The target of one data set is I2 Imidazoline Receptor. The data set can be described thus: Binding study towards I2 imidazoline receptor subtype in rat brain ([3H]2-BFI displacement). The note with it: read-out: [3H]2-BFI binding IC50; rat whole brain membranes, [3H]-2BFI 2.5x10-9 M, 90 min at 25° C. The method, then:
Binding Study Towards I2 Imidazoline Receptor Subtype in Rat Brain.
Male Wistar rats (240-300 g, Harlan, Italy) were sacrificed by decapitation. Whole brains were immediately removed on ice and homogenised in 10 volumes of buffered sucrose (0.32M in 50 mM Tris-HCl, pH 7.4 at 4° C.) using a motor driven Teflon-glass homogeniser. The homogenate was centrifuged at 1000×g for 10 min at 4° C. The resultant supernatants were pooled and centrifuged at 32000×g for 20 min at 4° C. The supernatants were discarded and each pellet suspended in 10 volumes of assay buffer (50 mM Tris-HCl, 1 mM MgCl2, pH 7.4 at 4° C.) and spun at 32000×g for 20 min at 4° C. The pellets were washed twice by repeated centrifugation at 32000×g for 20 min at 4° C. The final pellets were stored at −80° C. until use. Prior to radioligand binding studies, membrane pellets were thawed and washed a further 4 times by re-suspension in 10 volumes of assay buffer (as above) and repeated centrifugation to remove any possible endogenous inhibitors of binding. […] Non specific binding was determined in the presence of 10^-5 M BU224 (Tocris Bioscience). The incubation, in a final volume of 1 ml, was performed in polystyrene multiwell 24, started adding membranes suspension and was carried out for 90 min at 25° C. With the exception of total binding and non specific binding, all concentration points were performed in duplicate. Compounds were tested in 3-5 different concentrations, ranging from 10^-10 M to 10^-5 M final concentration.

In a further data set the target is human recombinant MAO-A (Homo sapiens (Human), UniProt P21397). The data set can be described thus: Monoaminooxidase (MAO) activity assay, MAO-Glo luminescent method, MAO-A.
The target in the next data set is human recombinant MAO-B (Homo sapiens (Human), UniProt P27338). The data set can be described thus: Monoaminooxidase (MAO) activity assay, MAO-Glo luminescent method, MAO-B.
In a further data set the test system is CD1 Mice. The data set can be described thus: Tail suspension test in mice. It is filed as in vivo. The note with it: Table 3; for MPE (% inhibition in immobility time): 30 min before the test. The method, then: Tail Suspension Test in Mice
To evaluate novel antidepressants compounds several animal models have been developed. […] The antidepressant effect of representative examples of compounds of formula (I) has been evaluated according to the procedure below. The immobility was induced according to the procedure of Stem et al. (1985). CD1 Mice (Harlan, Italy) were individually suspended 75 cm above the top with an adhesive tape placed 1 cm from the tip of the tail. Immobility duration was recorded for 5 min. Mice were considered immobile only when they hung passively and completely motionless. Compounds were given orally, 30 min before the test at doses ranging between 0.3 and 30 mg/kg. Data collected were expressed as mean percent effect (MPE), which represents the % of inhibition in immobility time between the animals treated with representative compounds of formula (I) and the controls that received only the vehicle.

Where [1] appears, read: read-out: MAO A activity IC50, human recombinant MAO-A, substrate 40 μM, 60 min room temperature.

Each structure is given as a SMILES string. Counter-ions that a name gives are not always drawn. Like-named read-outs stand apart in the source and are kept apart here. Some results are limits rather than exact numbers.

Sequence of human recombinant MAO-A (P21397 whole entry): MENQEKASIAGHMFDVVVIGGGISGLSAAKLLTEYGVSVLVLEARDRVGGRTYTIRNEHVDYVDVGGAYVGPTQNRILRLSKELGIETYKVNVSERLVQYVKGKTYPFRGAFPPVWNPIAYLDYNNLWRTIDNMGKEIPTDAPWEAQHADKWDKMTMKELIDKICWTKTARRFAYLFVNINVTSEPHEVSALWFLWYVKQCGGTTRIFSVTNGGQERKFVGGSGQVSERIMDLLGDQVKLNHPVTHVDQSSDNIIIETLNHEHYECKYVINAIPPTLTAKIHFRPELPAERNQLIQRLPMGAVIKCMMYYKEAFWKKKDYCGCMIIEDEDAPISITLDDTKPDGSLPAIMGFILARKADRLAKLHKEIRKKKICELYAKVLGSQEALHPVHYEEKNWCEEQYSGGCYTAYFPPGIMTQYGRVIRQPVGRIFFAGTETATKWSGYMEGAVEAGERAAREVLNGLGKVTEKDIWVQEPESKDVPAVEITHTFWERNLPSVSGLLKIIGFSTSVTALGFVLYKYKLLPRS
Sequence of human recombinant MAO-B (P27338 whole entry): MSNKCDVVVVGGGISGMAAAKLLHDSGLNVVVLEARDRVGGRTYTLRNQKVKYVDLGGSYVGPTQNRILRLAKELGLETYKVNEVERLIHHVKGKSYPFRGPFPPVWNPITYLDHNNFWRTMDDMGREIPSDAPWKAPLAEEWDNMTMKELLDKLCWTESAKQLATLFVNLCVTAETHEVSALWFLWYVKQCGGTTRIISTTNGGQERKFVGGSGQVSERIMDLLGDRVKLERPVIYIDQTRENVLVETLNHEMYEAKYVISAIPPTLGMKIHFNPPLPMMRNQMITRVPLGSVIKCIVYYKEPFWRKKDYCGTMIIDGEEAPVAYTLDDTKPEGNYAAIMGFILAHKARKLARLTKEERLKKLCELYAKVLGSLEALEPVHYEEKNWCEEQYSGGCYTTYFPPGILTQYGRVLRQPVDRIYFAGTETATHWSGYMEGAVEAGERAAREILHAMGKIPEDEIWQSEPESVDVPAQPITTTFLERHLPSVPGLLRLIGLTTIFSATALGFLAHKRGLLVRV
Method for human recombinant MAO-A: Monoaminooxidase (MAO) Activity Assay.
(§1) Inhibitory activity of compounds was evaluated by a homogeneous luminescent method, the MAO-Glo™ Assay (Promega), measuring the monoamine oxidase activity (MAOs) from recombinant source (microsomes from baculovirus infected insect cells, Sigma). Experiments were performed according to the Supplier's procedure, incubating human recombinant MAO-A or MAO-B with a luminogenic substrate, a derivative of beetle luciferin ((4S)-4,5-dihydro-2-(6-hydroxybenzothiazolyl)-4-thiazolecarboxylic acid). […] The MAO-Glo™ Assay was performed in two steps:
(§2) Step 1. The MAO reaction: MAO substrate was incubated with MAO-A or MAO-B (1 μg/sample) in the absence (Total activity) or presence (modulated activity) of test compounds. Total activity was determined in the presence the appropriate solvent. […] Reaction started adding the enzyme solution and samples were incubated for 60 min at room temperature. For negative control reaction, samples of MAO reaction buffer (100 mM Hepes, 5% glycerol, pH 7.5) indeed the test compound were included. For MAO-B activity assay, MAO reaction buffer contain 10% DMSO, in order to increase enzymatic activity. Step 2. […] At the end of incubation 50 μl of Luciferin Detection reagent were added to each well, plate was incubated at room temperature for 20 min, then luminescent signal was detected by luminometer (integration time 0.25-1 sec per well). […] Net MAO-dependent luminescence (net RLU) were calculated by subtracting the average luminescence of the negative control reaction without MAO enzyme. A reduction of net signal in the presence of test compound, with respect to total activity, reflect its effect on MAOs activity. […] A percentage of inhibition for each concentration tested were calculated and the IC50 value was estimated by linear regression.
Method for human recombinant MAO-B: Monoaminooxidase (MAO) Activity Assay.
as §1, §2

For `COc1ccc(-c2ncc3cc(-n4ccnc4C)ccc3n2)cc1` (as salt: hydrochloride) [Example 3, [6-(2-methyl-1H-imidazol-1-yl)-2-(4-methoxyphenyl)]quinazoline], the melting point fell in the range of 198.3 to 200.3 °C.
As for `Cc1cncn1-c1ccc2nc(-c3ccccc3)ncc2c1` (as salt: hydrochloride) [Example 5, [6-(5-methyl-1H-imidazol-1-yl)-2-phenyl]quinazoline], the melting point fell in the range of 138.5 to 139.1 °C.
Still for that read-out and setting: with `COc1ccc(-c2ncc3cc(-n4cnc(C)c4)ccc3n2)cc1` (as salt: hydrochloride) [Example 6, [6-(4-methyl-1H-imidazol-1-yl)-2-(4-methoxyphenyl)]quinazoline] the figure was 201 to 202 °C; with `Cc1cn(-c2ccc3nc(-c4ccc5c(c4)OCO5)ncc3c2)cn1` (as salt: hydrochloride) [Example 9, [6-(4-methyl-1H-imidazol-1-yl)-2-(1,3-benzodioxol-5-yl)]quinazoline], 215.3 to 218.7 °C.
The same measure, in the same setting: with `Cc1cn(-c2ccc3nc(-c4ccc(S(C)(=O)=O)cc4)ncc3c2)cn1` (as salt: hydrochloride) [Example 11, [6-(4-methyl-1H-imidazol-1-yl)-2-(4-methanesulfonylphenyl)]quinazoline] the figure was 276.4 to 281.7 °C; with `COc1ccc(-c2ccc3cc(-n4ccnc4)ccc3n2)cc1` (as salt: hydrochloride) [Example 18, [6-(1H-imidazol-1-yl)-2-(4-methoxyphenyl)]quinoline dihydrochloride], 266 to 267 °C; with `COc1ccccc1-c1ccc2cc(-n3ccnc3)ccc2n1` (as salt: hydrochloride) [Example 19, [6-(1H-imidazol-1-yl)-2-(2-methoxyphenyl)]quinoline dihydrochloride], 251.5 to 252 °C.
The same measure, in the same setting: with `c1cn(-c2ccc3nc(-c4ccoc4)ccc3c2)cn1` (as salt: hydrochloride) [Example 20, [6-(1H-imidazol-1-yl)-2-(3-furyl)]quinoline dihydrochloride] the figure was 293.1 to 295.6 °C; with `Fc1ccc(-c2ccc3cc(-n4ccnc4)ccc3n2)cc1` (as salt: hydrochloride) [Example 21, [6-(1H-imidazol-1-yl)-2-(4-fluorophenyl)]quinoline dihydrochloride], 280.7 to 282 °C; with `CN(C)c1ccc(-c2ccc3cc(-n4ccnc4)ccc3n2)cc1` (as salt: hydrochloride) [Example 22, [6-(1H-imidazol-1-yl)-2-(4-dimethylaminophenyl)]quinoline trihydrochloride], 284 to 286 °C.
Take `FC(F)(F)Oc1ccc(-c2ccc3cc(-n4ccnc4)ccc3n2)cc1` (as salt: hydrochloride) [Example 23, [6-(1H-imidazol-1-yl)-2-(4-trifluoromethoxyphenyl)]quinoline dihydrochloride]: the melting point fell in the range of 260 to 262 °C.
The compound `Cc1cc(OC(F)(F)F)ccc1-c1ccc2cc(-n3ccnc3)ccc2n1` (as salt: hydrochloride) [Example 24, [6-(1H-imidazol-1-yl)-2-(2-methyl-4-trifluoromethoxyphenyl)]quinoline dihydrochloride] had a melting point of 269.7 to 274.5 °C.
Take `COc1ccc(-c2ccc3cc(-n4ccnc4C)ccc3n2)cc1` (as salt: hydrochloride) [Example 26, [6-(2-methyl-1H-imidazol-1-yl)-2-(4-methoxyphenyl)]quinoline dihydrochloride]: the melting point is 230 °C (dec.).
The same measure, in the same setting: with `COc1ccccc1-c1ccc2cc(-n3ccnc3C)ccc2n1` (as salt: hydrochloride) [Example 27, [6-(2-methyl-1H-imidazol-1-yl)-2-(2-methoxyphenyl)]quinoline dihydrochloride] the figure was 235 °C (dec.); with `Cc1nccn1-c1ccc2nc(-c3ccoc3)ccc2c1` (as salt: hydrochloride) [Example 28, [6-(2-methyl-1H imidazol-1-yl)-2-(3-furyl)]quinoline dihydrochloride], 240.1 to 243.2 °C; with `Cc1nccn1-c1ccc2nc(-c3ccccc3)ccc2c1` (as salt: hydrochloride) [Example 29, [6-(2-methyl-1H imidazol-1-yl)-2-(phenyl)]quinoline dihydrochloride], 296 to 297 °C.
The same measure, in the same setting: with `COc1ccc(-c2ccc3cc(-n4cnc(C)c4)ccc3n2)cc1` (as salt: hydrochloride) [Example 31, [6-(4-methyl-1H-imidazol-1-yl)-2-(4-methoxyphenyl)]quinoline dihydrochloride] the figure was 276 to 278 °C (dec.); with `Cc1cn(-c2ccc3nc(-c4ccc(F)cc4)ccc3c2)cn1` (as salt: hydrochloride) [Example 32, [6-(4-methyl-1H-imidazol-1-yl)-2-(4-fluorophenyl)]quinoline dihydrochloride], 264 to 268 °C.
The same measure, in the same setting: next, `CSc1ccc(-c2ccc3cc(-n4cnc(C)c4)ccc3n2)cc1` (as salt: hydrochloride) [Example 33, [6-(4-methyl-1H-imidazol-1-yl)-2-(4-methylthiophenyl)]quinoline dihydrochloride]: 294 to 296 °C.
For the compound `N=C(N)NCCCCN` [Agmatine, reference compound], the half-inhibitory concentration (IC50) on I2 Imidazoline Receptor was over 10000 nM; at human recombinant MAO-A it was over 100000 nM; on human recombinant MAO-B, over 100000 nM.
For the compound `C#CCN(C)CCCOc1ccc(Cl)cc1Cl` [Clorgyline, reference compound], the half-maximal inhibitory concentration (IC50) at I2 Imidazoline Receptor worked out at 1530 nM.
On the same count and under the same terms, with `C#CCN(C)[C@H](C)Cc1ccccc1` [Deprenyl, reference compound] the figure was 2310 nM.
As for `c1ccc2oc(C3=NCCN3)cc2c1` [Example 2-BFI, 2-benzofuranylimidazoline, reference compound], the IC50 at I2 Imidazoline Receptor is 7 nM; at human recombinant MAO-A (setting [1]), over 1000 nM.
Consider `COc1ccc(-c2ncc3cc(-n4cnc(C)c4)ccc3n2)cc1` [Example 6, [6-(4-methyl-1H-imidazol-1-yl)-2-(4-methoxyphenyl)]quinazoline], for which the values for the IC50 at I2 Imidazoline Receptor, at human recombinant MAO-A and at human recombinant MAO-B were 1160 nM, over 10000 nM and over 10000 nM, respectively.
Turning to `COc1cccc(-c2ncc3cc(-n4cnc(C)c4)ccc3n2)c1` [Example 8, [6-(4-methyl-1H-imidazol-1-yl)-2-(3-methoxyphenyl)]quinazoline], the melting point lay within 294 to 296 °C.
On to `Cc1cn(-c2ccc3nc(-c4ccc5c(c4)OCO5)ncc3c2)cn1` [Example 9, [6-(4-methyl-1H-imidazol-1-yl)-2-(1,3-benzodioxol-5-yl)]quinazoline], for which the half-maximal inhibitory concentration (IC50) at I2 Imidazoline Receptor is 1040 nM; at human recombinant MAO-A, over 10000 nM; on human recombinant MAO-B, over 10000 nM.
On to `Cc1cn(-c2ccc3nc(-c4ccoc4)ncc3c2)cn1` [Example 12, [6-(4-methyl-1H-imidazol-1-yl)-2-(3-furyl)]quinazoline], for which the melting point is 160.5 to 163.2 °C.
In the case of `c1cn(-c2ccc3nc(-c4ccc5c(c4)OCO5)ncc3c2)cn1` [Example 13, [6-(1H-imidazol-1-yl)-2-(1,3-benzodioxol-5-yl)]quinazoline], the concentration for half-maximal inhibition (IC50) is 1340 nM on I2 Imidazoline Receptor, 10000 nM at human recombinant MAO-A (setting [1]) and over 10000 nM at human recombinant MAO-B.
Take `c1ccc(-c2ccc3cc(-n4ccnc4)ccc3n2)cc1` [Example 17]: the values for the IC50 on I2 Imidazoline Receptor and at human recombinant MAO-B (read-out: MAO B activity IC50) were 420 nM and 10000 nM, respectively.
Regarding `CS(=O)(=O)c1ccc(-c2ccc3cc(-n4ccnc4)ccc3n2)cc1` [Example 25, [6-(1H-imidazol-1-yl)-2-(4-methanesulfonylphenyl)]quinoline dihydrochloride], the “MPE (% inhibition in immobility time)” value in the data set with CD1 Mice (dose 3 mg/Kg OS) was found to be 23%; with CD1 Mice (dose 10 mg/Kg OS), 54%; in the data set with CD1 Mice (dose 30 mg/Kg OS) it was 40%. Moreover, the ED50 in the data set with CD1 Mice (dose yielding 50% reduction of immobility, oral) was 8.7 mg/Kg; OS. The half-inhibitory concentration (IC50) at human recombinant MAO-B was over 10000 nM.

Broadly, the melting point is the temperature, or range, at which the solid turns liquid. What is called IC50 is the concentration that gives 50% inhibition.
